27 molecules from ChEMBL document CHEMBL1201862, “PubChem BioAssay data set” (2004) can be followed below.

Activity calls are given as the source filed them.

The target in one assay is Large T antigen (Simian virus 40, UniProt P03070). The format is functional, Betapolyomavirus macacae.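 Also: Confirmatory-stage PubChem screen for compounds that inhibit SV40 T antigen.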
Assay [1] has as its system Streptococcus sp. 'group A'. Kind of assay: growth inhibition of control SK(-) GAS strain, dose response, counter-screen for streptokinase expression inhibitor project, luminescence, kanamycin, BacTiterGlo, confirmation (AID 1900). The format is functional, organism-based.
Another assay addresses T1, Streptokinase A (Streptococcus pyogenes serotype M1, UniProt P10520).
T1 sequence (P10520 whole entry): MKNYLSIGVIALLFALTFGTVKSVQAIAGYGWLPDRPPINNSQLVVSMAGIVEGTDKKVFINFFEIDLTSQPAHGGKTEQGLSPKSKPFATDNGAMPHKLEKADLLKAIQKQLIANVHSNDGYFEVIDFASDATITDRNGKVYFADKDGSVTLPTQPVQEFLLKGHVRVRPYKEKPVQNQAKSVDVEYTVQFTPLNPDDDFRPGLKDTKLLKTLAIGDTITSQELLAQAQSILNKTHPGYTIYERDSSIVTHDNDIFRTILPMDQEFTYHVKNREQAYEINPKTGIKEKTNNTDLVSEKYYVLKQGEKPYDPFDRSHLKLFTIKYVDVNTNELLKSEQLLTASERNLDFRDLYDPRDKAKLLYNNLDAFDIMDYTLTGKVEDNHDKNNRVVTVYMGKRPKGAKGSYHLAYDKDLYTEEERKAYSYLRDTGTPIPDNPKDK
The assay can be described thus: S. pyogenes streptokinase expression inhibitors, potency, dose response, plasminogen activation absorbance, OD405 (AID 1914).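 Also: secreted streptokinase activity via plasminogen activation per viability signal from cell pellet.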 The format is functional, Streptococcus pyogenes M1 GAS.

The next assay has as its system Streptococcus. Kind of assay: Group A Streptococcus viability loss, dose response, counter-screen for streptokinase expression inhibitor project, luminescence, BacTiterGlo (AID 1915).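 Also: potency for reduction of bacterial viability or growth.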 The format is functional, organism-based.
In another assay the test system is H9c2. Kind of assay: cells. To be noted: Rattus norvegicus, H9c2, Myocardium. The format is functional, cell-based.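 Also: confirmatory concentration-response retest of ultra-high-throughput screening hits for modulation of myocardial damage; cell death induced by hydrogen peroxide oxidative stress; compound pretreatment for 60 min then peroxide exposure for 2 h; potency is for protecting the cells against peroxide damage rather than for killing them.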
Assay [2] in a line: cells. The format is functional, cell-based.
Assay [3] is described as follows: cells. The format is functional, cell-based. This is another data set of the same source.
For assay [4], the target named is Heat shock protein HSP 90-alpha (Homo sapiens, UniProt P07900). The format is functional, organism-based.
In a further assay the target is T2, Protein skinhead-1 (Caenorhabditis elegans, UniProt P34707).
T2 sequence (P34707 whole entry): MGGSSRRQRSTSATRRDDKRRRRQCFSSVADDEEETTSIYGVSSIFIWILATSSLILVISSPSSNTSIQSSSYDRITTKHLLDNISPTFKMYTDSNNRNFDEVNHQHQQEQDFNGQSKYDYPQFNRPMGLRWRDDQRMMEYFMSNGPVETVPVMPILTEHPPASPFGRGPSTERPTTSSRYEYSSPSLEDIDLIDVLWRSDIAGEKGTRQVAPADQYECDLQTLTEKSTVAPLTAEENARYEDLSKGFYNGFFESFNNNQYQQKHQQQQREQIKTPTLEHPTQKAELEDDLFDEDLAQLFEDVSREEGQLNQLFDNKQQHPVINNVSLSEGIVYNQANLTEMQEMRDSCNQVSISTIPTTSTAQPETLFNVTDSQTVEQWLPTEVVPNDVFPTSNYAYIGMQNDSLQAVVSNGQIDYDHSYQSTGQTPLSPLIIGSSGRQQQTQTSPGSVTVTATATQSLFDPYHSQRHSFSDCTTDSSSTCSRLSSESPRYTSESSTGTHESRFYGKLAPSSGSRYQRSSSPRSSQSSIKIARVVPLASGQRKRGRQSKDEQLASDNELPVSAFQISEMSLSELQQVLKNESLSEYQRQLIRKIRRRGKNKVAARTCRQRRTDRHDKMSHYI
The format is functional.

For assay [5], the target named is Voltage-dependent T-type calcium channel subunit alpha-1H (Homo sapiens, UniProt O95180). The format is functional.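 Also: channel activity triggered by adding a high calcium stimulation buffer.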
Assay [6] deals with T3, Replicative DNA helicase DnaB (Mycobacterium tuberculosis, UniProt P9WMR3).
T3 sequence (P9WMR3 whole entry): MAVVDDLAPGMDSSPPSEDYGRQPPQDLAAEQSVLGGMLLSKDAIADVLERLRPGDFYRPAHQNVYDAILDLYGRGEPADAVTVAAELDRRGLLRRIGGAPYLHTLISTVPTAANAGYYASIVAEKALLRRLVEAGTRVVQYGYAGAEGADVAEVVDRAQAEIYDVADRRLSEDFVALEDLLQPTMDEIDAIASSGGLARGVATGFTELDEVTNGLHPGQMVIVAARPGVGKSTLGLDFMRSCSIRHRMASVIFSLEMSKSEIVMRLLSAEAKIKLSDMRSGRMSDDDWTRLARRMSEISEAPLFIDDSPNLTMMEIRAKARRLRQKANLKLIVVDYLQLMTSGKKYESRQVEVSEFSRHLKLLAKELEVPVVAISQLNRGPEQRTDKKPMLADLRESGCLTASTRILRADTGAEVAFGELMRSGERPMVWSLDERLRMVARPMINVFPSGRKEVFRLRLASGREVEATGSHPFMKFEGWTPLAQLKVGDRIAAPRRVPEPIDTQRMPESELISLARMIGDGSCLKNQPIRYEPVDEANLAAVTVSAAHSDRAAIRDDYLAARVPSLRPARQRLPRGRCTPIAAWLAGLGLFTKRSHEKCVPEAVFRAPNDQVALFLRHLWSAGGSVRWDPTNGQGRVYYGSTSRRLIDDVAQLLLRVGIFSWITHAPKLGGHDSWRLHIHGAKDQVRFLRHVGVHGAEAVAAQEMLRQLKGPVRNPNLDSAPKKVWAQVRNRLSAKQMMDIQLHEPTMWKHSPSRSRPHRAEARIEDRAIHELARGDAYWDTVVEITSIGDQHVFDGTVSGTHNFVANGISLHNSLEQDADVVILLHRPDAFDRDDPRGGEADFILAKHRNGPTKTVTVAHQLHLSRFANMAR
The assay can be described thus: DnaB intein splicing inhibitors, dose response, biochemical, cell-free fluorescence (AID 449749). The format is functional.

In a further assay the target is T4, Protein RecA (Mycobacterium tuberculosis, UniProt P9WHJ3).
T4 sequence (P9WHJ3 whole entry): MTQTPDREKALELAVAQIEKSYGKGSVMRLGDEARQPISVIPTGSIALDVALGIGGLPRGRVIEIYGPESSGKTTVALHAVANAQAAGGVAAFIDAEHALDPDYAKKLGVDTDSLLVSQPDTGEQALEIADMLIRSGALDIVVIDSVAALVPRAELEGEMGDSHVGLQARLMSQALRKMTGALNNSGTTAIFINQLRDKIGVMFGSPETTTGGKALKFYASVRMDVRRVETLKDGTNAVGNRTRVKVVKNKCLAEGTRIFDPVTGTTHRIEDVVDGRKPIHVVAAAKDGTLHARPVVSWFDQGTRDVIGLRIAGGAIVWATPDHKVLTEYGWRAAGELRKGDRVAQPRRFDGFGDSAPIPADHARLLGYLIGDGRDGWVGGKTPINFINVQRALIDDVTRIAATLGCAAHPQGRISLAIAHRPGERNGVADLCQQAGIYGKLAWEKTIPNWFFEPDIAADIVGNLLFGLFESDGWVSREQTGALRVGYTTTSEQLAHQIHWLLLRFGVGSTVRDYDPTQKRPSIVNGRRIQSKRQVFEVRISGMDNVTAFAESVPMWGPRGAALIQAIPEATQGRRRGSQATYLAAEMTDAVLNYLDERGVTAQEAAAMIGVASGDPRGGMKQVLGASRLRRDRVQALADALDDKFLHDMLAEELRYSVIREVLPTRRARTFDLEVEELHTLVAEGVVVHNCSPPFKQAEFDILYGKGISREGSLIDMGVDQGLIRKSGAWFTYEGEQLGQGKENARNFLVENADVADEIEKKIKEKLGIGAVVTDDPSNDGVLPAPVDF
The assay can be described thus: Fluorescence Cell-Free Homogeneous Dose Retest to Identify Inhibitors of RecA-Intein Splicing Activity. [Related pubchem assays (depositor defined):AID2097, AID2223, AID489010, AID492950]. The format is functional.

The target in assay [7] is T5, Rac GTPase-activating protein 1 (Homo sapiens, UniProt Q9H0H5).
T5 sequence (Q9H0H5 whole entry): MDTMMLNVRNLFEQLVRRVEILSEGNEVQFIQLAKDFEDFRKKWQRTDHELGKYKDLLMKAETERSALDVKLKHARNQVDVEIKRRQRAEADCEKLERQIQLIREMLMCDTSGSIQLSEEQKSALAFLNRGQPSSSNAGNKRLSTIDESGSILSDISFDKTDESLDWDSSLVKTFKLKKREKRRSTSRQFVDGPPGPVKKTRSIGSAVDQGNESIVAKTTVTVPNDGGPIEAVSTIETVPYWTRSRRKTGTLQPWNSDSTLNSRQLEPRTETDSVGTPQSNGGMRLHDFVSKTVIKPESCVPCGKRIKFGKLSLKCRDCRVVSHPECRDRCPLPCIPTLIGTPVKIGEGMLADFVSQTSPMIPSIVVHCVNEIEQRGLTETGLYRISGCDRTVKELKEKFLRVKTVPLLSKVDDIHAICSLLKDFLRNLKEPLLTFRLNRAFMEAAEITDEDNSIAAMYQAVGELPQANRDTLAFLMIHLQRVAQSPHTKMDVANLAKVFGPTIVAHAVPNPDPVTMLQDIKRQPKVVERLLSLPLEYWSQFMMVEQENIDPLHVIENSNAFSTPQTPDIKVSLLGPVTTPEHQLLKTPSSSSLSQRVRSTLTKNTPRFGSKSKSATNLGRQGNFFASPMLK
The assay can be described thus: MgcRacGAP GTPase-activating activity inhibitors, confirmation, biochemical, ADP Hunter fluorescence, primary and confirmatory (AID 624330). The format is functional.

The target in the next assay is Paired box protein Pax-8 (Homo sapiens, UniProt Q06710). Kind of assay: inhibitors of PAX8-driven TPO luciferase reporter, dose response, RMG-I cells, cherry-pick (AID 687027).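 Also: luciferase reporter driven by Pax8 target thyroperoxidase promoter measured by SteadyGlo luminescence.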 The format is functional, cell-based.
A further assay concerns the target Cytochrome P450 2D6 (Homo sapiens, UniProt P10635).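 Also: CYP2D6 member of a cytochrome P450 panel assay.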

Large T antigen, sequence (P03070 whole entry): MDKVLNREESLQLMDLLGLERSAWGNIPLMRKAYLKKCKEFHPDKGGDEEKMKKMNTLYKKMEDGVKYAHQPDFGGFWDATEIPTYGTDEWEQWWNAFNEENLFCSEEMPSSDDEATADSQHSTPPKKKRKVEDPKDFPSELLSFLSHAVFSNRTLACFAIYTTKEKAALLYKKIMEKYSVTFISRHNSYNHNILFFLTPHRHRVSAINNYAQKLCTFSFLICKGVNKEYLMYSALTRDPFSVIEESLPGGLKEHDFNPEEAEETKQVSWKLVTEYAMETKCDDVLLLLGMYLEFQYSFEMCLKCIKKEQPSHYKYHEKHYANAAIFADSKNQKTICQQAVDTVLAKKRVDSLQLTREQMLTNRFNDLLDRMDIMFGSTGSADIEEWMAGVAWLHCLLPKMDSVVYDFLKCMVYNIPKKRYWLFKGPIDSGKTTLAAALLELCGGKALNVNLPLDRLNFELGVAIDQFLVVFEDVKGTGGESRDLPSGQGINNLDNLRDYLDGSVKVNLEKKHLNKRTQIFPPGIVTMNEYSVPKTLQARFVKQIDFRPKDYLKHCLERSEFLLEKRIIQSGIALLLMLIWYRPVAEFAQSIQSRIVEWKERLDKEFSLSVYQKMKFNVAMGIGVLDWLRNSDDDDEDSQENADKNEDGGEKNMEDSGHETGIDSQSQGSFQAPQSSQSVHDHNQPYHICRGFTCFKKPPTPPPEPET
Paired box protein Pax-8, sequence (Q06710 whole entry): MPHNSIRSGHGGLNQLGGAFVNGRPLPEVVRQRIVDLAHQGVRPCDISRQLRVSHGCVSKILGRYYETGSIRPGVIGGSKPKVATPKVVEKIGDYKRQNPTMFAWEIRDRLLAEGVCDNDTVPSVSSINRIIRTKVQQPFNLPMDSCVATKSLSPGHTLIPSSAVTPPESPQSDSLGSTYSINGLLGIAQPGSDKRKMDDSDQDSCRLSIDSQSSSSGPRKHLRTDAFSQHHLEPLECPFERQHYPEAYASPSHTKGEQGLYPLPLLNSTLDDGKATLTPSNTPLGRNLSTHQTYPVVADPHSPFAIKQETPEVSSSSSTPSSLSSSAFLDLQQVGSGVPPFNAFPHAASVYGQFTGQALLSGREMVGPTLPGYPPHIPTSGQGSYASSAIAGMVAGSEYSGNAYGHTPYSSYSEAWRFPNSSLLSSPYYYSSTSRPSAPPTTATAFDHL
Voltage-dependent T-type calcium channel subunit alpha-1H, sequence (O95180 whole entry): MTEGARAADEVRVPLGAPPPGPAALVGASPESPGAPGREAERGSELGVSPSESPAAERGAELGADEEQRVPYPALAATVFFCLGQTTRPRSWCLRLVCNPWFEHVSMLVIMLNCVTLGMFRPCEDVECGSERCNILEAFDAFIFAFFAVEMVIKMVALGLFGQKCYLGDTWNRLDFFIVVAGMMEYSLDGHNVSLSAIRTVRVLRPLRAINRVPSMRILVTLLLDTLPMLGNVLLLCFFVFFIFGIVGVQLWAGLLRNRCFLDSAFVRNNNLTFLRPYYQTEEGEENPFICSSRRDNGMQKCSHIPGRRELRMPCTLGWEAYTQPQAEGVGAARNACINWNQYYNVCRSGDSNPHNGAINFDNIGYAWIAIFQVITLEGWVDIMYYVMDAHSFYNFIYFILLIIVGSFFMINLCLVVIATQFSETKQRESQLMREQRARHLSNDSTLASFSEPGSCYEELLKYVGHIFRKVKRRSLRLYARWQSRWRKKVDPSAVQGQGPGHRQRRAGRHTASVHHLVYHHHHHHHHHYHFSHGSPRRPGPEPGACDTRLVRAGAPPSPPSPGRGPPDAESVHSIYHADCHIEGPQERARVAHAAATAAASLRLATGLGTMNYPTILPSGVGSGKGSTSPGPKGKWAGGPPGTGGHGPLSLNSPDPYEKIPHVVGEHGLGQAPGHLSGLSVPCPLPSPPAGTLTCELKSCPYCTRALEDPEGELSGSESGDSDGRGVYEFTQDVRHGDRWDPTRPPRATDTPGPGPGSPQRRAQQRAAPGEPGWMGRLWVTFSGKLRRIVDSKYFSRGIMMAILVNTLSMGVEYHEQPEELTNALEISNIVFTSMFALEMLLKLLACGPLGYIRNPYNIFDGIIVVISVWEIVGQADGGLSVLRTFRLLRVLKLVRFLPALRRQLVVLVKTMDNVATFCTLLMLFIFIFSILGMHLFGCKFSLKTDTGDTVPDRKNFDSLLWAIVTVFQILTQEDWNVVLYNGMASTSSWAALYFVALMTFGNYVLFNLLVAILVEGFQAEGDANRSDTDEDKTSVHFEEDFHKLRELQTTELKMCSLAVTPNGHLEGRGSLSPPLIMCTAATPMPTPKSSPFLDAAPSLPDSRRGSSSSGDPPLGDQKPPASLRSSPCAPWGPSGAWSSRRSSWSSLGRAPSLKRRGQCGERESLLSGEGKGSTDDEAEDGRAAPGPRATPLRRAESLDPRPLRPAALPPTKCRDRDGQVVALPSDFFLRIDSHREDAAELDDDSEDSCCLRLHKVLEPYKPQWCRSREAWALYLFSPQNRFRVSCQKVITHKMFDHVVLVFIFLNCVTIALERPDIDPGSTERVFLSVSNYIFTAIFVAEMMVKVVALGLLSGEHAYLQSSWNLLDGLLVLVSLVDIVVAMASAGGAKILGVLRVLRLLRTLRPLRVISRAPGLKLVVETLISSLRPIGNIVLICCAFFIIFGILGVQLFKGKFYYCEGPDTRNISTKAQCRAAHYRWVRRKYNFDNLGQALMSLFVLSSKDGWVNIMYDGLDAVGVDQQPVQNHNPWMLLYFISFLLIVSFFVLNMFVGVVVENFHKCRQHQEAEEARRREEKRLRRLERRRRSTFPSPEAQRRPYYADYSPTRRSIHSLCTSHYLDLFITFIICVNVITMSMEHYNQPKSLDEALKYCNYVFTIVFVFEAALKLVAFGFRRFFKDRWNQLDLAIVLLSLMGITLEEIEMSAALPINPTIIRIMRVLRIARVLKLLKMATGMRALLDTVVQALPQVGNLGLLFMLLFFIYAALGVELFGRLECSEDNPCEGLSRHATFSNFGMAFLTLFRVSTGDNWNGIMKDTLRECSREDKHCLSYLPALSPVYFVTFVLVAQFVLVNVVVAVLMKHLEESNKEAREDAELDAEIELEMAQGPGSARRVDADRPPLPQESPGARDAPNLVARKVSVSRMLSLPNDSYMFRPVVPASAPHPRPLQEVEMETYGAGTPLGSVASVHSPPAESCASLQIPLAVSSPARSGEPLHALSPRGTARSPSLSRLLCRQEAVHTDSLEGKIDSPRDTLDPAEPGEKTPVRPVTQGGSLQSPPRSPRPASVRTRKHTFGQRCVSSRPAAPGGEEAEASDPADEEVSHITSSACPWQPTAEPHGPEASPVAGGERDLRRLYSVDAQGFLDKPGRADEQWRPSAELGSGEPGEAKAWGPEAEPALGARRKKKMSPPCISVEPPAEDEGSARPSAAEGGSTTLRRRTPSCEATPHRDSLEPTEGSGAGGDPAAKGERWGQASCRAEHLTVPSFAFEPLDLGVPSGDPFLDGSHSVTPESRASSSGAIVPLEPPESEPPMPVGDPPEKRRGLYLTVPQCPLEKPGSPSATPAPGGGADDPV
Cytochrome P450 2D6, sequence (P10635 whole entry): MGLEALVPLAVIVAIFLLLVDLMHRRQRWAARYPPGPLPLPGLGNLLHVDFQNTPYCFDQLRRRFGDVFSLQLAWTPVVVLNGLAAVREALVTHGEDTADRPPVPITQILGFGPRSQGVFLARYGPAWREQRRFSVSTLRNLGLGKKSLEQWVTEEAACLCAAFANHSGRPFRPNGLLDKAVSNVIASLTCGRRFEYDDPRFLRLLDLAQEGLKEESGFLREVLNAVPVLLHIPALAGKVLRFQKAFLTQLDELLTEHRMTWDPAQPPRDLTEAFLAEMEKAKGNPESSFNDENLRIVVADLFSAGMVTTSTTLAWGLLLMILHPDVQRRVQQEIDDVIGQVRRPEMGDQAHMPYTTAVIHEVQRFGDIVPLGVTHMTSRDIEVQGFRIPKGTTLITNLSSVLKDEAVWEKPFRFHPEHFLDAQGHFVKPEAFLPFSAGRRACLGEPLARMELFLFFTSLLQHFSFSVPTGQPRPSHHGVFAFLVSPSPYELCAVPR

Regarding `COc1cc(CNc2ccc3c(c2)CCC3)cc(OC)c1O`, on Large T antigen, the IC50 is > 100 µM (active).

Turning to `Cc1ccc2sc(NNC(=O)c3ccc4c(c3)OCCO4)nc2c1C`, the EC50 in assay [1] is 13 µM (active); at Streptokinase A, > 150 µM (not active); in the assay on Streptococcus it was 18.3 µM (active). In addition, the IC50 in the assay with H9c2 is 32.5 µM (inactive).

For `COc1ccc(CNC(=S)N/N=C/c2ccc(O)c(OC)c2)cc1`, the EC50 in the assay “cells [2]” and in the assay “cells [3]” was > 350 µM (not active) throughout. Further, the IC50 on Large T antigen is 27.7 µM (active).

For `C[C@@]12C(=O)Nc3ccc(Br)cc3C(=O)N1[C@H]1c3ccccc3OC[C@@H]1[C@@H]2c1ccccc1`, in assay [4], the AC50 was 0.427 µM (active).

For the molecule `Cc1ccccc1NC(=O)CSC1=C(C#N)C(c2ccsc2)CC(=O)N1` (configuration not stated), the IC50 at Protein skinhead-1 was > 100 µM (inactive).

For `Cc1nn(-c2ccc([N+](=O)[O-])cc2)c(O)c1/C=N/CCN1CCN(C(=O)c2cccc(F)c2)CC1`, the AC50 in assay [4] was 5.99 µM (active).

As for `COc1cc([C@@H]2Oc3cc(C4Oc5cc(O)cc(O)c5C(=O)[C@H]4O)ccc3O[C@H]2CO)ccc1O` (some centres not stated), at Large T antigen, the IC50 was 57.5 µM (active).

With `CCCCn1nc(C(=O)Oc2ccc3c(C)cc(=O)oc3c2)c2ccccc2c1=O`, in the assay with H9c2, the IC50 is > 79 µM (inactive).

In the case of `Cc1cc(C)c(C)c(S(=O)(=O)N2CCN(C(=O)c3cc(O)nc4ccccc34)CC2)c1C`, in the assay with H9c2, the IC50 was > 79 µM (inactive).

With `O=C(CSC1=NCCS1)Nc1ccc(S(=O)(=O)N2CCCCCC2)cc1`, the EC50 is 7.64 µM (active) in [5] and 10.1 µM (active) on Protein RecA. In assay [6], the AC50 was 21.8 µM (active).

On to `Brc1ccc(-c2cn3cccnc3n2)cc1`, for which, on Protein skinhead-1, the IC50 was > 100 µM (inactive).

As to `CNC(=S)N1CCN(c2ccc(OC)cc2)CC1`, at Large T antigen, the IC50 is 34 µM (active).

For `O=C1N=C(NCc2ccccc2)S/C1=C/c1ccc(O)cc1`, the IC50 on Large T antigen was 11.7 µM (active); in assay [7], 18.9 µM (active).

`Cn1c(=O)c2c(nc(Br)n2Cc2ccc3ccccc3c2)n(C)c1=O`: in the assay on H9c2, the IC50 was 13.7 µM (active).

Turning to `O=C(Cn1[nH]c(=O)c2ccccc2c1=O)OCC(=O)N1CCc2ccccc2C1`, the IC50 in the assay with H9c2 was 28.5 µM (active).

For the molecule `Fc1cc(Br)ccc1COc1ccc(-c2nnco2)cc1`, the IC50 at Protein skinhead-1 was > 100 µM (inactive).

As to `COc1cccc(/C=N/Nc2ncnc3scc(-c4ccccc4)c23)c1OC`, in the assay with H9c2, the IC50 is > 79 µM (inactive).

`CC(O)CCc1ccc(O)cc1` (configuration not stated): on Large T antigen, the IC50 is 25.4 µM (active).

For `C[C@@H]1CCCCO[C@@H](CN(C)Cc2ccc(Cl)c(Cl)c2)[C@H](C)CN([C@@H](C)CO)C(=O)c2cc(NC(=O)Cc3ccccc3)ccc2O1`, the AC50 at Paired box protein Pax-8 is 4.54 µM (active).

As to `Clc1ccc(-c2nnc(-c3cccnc3)o2)cc1`, the IC50 at Protein skinhead-1 is 30.1 µM (active).

With `CCC(C)N(C(=O)COC(=O)Cc1nnc(O)c2ccccc12)C1CCS(=O)(=O)C1` (configuration not stated), the IC50 in the assay on H9c2 is > 79 µM (inactive).

Take `CCCc1nc2ccccc2c(=O)n1-c1ccc(OC)cc1`: the IC50 on Protein skinhead-1 is > 100 µM (inactive). The AC50 at Cytochrome P450 2D6 was 14.1 µM (inconclusive).

Take `CC(=O)Nc1cc(-c2cccc(NS(C)(=O)=O)c2)cn2c(-c3cccc(C(C)=O)c3)cnc12`: the IC50 with H9c2 is 12.8 µM (active).

With `CC1CCCN(C(=O)c2ccncc2)C1` (configuration not stated), at Protein skinhead-1, the IC50 was > 100 µM (inactive).

Turning to `Cn1ncc(Cl)c1C(=O)N/N=C/c1ccccn1`, the IC50 in the assay on H9c2 is 71.6 µM (inactive).

For the molecule `CC1=CC(C)CC(C)OC(=O)CC(c2ccc(O)cc2)NC(=O)C(Cc2c(Br)[nH]c3ccccc23)N(C)C(=O)C(C)NC(=O)C(C)C1` (configuration not stated), the results for the AC50 (in assay [4]; on Paired box protein Pax-8) were 4.09 µM (active) and < 0.26 µM (active), respectively.

Regarding `CCOc1nc(-c2ccncc2)nc2ccccc12`, the IC50 at Protein skinhead-1 is > 100 µM (inactive).
